According to PubChem BioAssay (NCI):
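All cell lines were grown in 96-well plates and treated with compound for 48 hours. At the TGI there is no net growth.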

Key:
Assay in all cases: inhibition of tumour cell growth, NCI panel, 48 h
786-0 renal = test system: 786-0 renal
A498 renal = test system: A498 renal
A549 NSCLC = test system: A549 NSCLC
ACHN renal = test system: ACHN renal
BT-549 breast = test system: BT-549 breast
CAKI-1 renal = test system: CAKI-1 renal
CCRF-CEM leukemia = test system: CCRF-CEM leukemia
COLO 205 colon = test system: COLO 205 colon
DU-145 prostate = test system: DU-145 prostate
EKVX NSCLC = test system: EKVX NSCLC
HCC-2998 colon = test system: HCC-2998 colon
HCT-116 colon = test system: HCT-116 colon
HCT-15 colon = test system: HCT-15 colon
HOP-62 NSCLC = test system: HOP-62 NSCLC
HOP-92 NSCLC = test system: HOP-92 NSCLC
HS 578T breast = test system: HS 578T breast
HT29 colon = test system: HT29 colon
IGROV1 ovarian = test system: IGROV1 ovarian
K-562 leukemia = test system: K-562 leukemia
KM12 colon = test system: KM12 colon
LOX IMVI melanoma = test system: LOX IMVI melanoma
M14 melanoma = test system: M14 melanoma
MALME-3M melanoma = test system: MALME-3M melanoma
MCF7 breast = test system: MCF7 breast
MDA-MB-231 breast = test system: MDA-MB-231 breast
MDA-MB-435 = test system: MDA-MB-435
MDA-N = test system: MDA-N
MOLT-4 leukemia = test system: MOLT-4 leukemia
NCI-H23 lung = test system: NCI-H23 lung
NCI-H460 lung = test system: NCI-H460 lung
NCI-H522 lung = test system: NCI-H522 lung
NCI/ADR-RES ovarian = test system: NCI/ADR-RES ovarian
OVCAR-3 ovarian = test system: OVCAR-3 ovarian
OVCAR-4 ovarian = test system: OVCAR-4 ovarian
OVCAR-5 ovarian = test system: OVCAR-5 ovarian
OVCAR-8 ovarian = test system: OVCAR-8 ovarian
PC-3 prostate = test system: PC-3 prostate
RPMI-8226 leukemia = test system: RPMI-8226 leukemia
RXF 393 renal = test system: RXF 393 renal
SF-268 CNS = test system: SF-268 CNS
SF-295 CNS = test system: SF-295 CNS
SK-MEL-2 melanoma = test system: SK-MEL-2 melanoma
SK-MEL-28 melanoma = test system: SK-MEL-28 melanoma
SK-MEL-5 melanoma = test system: SK-MEL-5 melanoma
SK-OV-3 ovarian = test system: SK-OV-3 ovarian
SNB-19 CNS = test system: SNB-19 CNS
SNB-75 CNS = test system: SNB-75 CNS
SR leukemia = test system: SR leukemia
SW-620 colon = test system: SW-620 colon
U251 CNS = test system: U251 CNS
UACC-257 melanoma = test system: UACC-257 melanoma
UACC-62 melanoma = test system: UACC-62 melanoma
UO-31 renal = test system: UO-31 renal
HL-60(TB) leukemia = test system: HL-60(TB) leukemia
SF-539 CNS = test system: SF-539 CNS
SN12C renal = test system: SN12C renal
T-47D breast = test system: T-47D breast
TK-10 renal = test system: TK-10 renal
NCI-H226 lung = test system: NCI-H226 lung

Measured: TGI

C/C=C\C(CC(=O)O)CC(=O)NCCC1CN(S(=O)(=O)C(F)(F)F)c2ccccc21 (stereo not drawn)
not listed: HL-60(TB) leukemia | SF-539 CNS | SN12C renal | T-47D breast | TK-10 renal | NCI-H226 lung
> 100 µM: all other assays above

Cc1ccc(S(=O)(=O)NC(=O)NS(=O)(=O)O)cc1
not listed: A498 renal | CAKI-1 renal | EKVX NSCLC | HCC-2998 colon | MDA-MB-435 | OVCAR-3 ovarian | SF-295 CNS | NCI-H226 lung
> 100 µM: all other assays above

OCc1ccccc1OC1OC(CO)C(O)C(O)C1O (stereo not drawn)
not listed: K-562 leukemia | SNB-19 CNS | SR leukemia
> 100 µM: all other assays above

CN(C)CCNc1nc2ccccc2c2c1C(=O)c1ccccc1-2
3.72 µM: HOP-62 NSCLC
2.54 µM: CAKI-1 renal
2.83 µM: U251 CNS
0.437 µM: UACC-62 melanoma
1.39 µM: MDA-N
5.42 µM: SNB-19 CNS
4.12 µM: T-47D breast
3.66 µM: 786-0 renal
1.24 µM: A498 renal
2.96 µM: A549 NSCLC
0.415 µM: NCI-H460 lung
3.31 µM: SF-295 CNS
1.51 µM: DU-145 prostate
2.62 µM: MDA-MB-231 breast
4.05 µM: CCRF-CEM leukemia
1.13 µM: RXF 393 renal
3.7 µM: UACC-257 melanoma
3.17 µM: UO-31 renal
3.07 µM: HOP-92 NSCLC
3.5 µM: HT29 colon
2.26 µM: OVCAR-8 ovarian
2.23 µM: COLO 205 colon
1.67 µM: M14 melanoma
1.82 µM: NCI-H23 lung
3.09 µM: EKVX NSCLC
24.3 µM: HS 578T breast
0.807 µM: IGROV1 ovarian
0.812 µM: HL-60(TB) leukemia
0.396 µM: K-562 leukemia
2.84 µM: SK-MEL-28 melanoma
0.601 µM: ACHN renal
1.38 µM: HCT-116 colon
0.599 µM: RPMI-8226 leukemia
1.87 µM: MCF7 breast
0.511 µM: HCC-2998 colon
0.862 µM: NCI-H226 lung
2.06 µM: NCI/ADR-RES ovarian
2.4 µM: SF-268 CNS
4.9 µM: SW-620 colon
0.895 µM: NCI-H522 lung
1.92 µM: SK-MEL-5 melanoma
1.57 µM: HCT-15 colon
1.68 µM: SNB-75 CNS
8.4 µM: OVCAR-3 ovarian
0.098 µM: MOLT-4 leukemia
0.45 µM: SN12C renal
13.1 µM: SK-OV-3 ovarian
1.9 µM: PC-3 prostate
3.14 µM: BT-549 breast
0.961 µM: LOX IMVI melanoma
5.25 µM: OVCAR-5 ovarian
1.12 µM: MALME-3M melanoma | MDA-MB-435
1.41 µM: OVCAR-4 ovarian
10.5 µM: TK-10 renal
3.04 µM: SF-539 CNS
1.55 µM: SK-MEL-2 melanoma
2.11 µM: KM12 colon
